# In patent publication US9320753B2, “Organ arrest, protection and preservation” (priority 1999, dated 2016):
# Experiments:
# [1] = cited from earlier work
# [2] = system: isolated working rat heart; experiment: Lignocaine alone in the isolated working rat heart; settings: lignocaine alone at 0.5, 1.0 and 1.5 mM
# Excerpt: Lignocaine is a local anaesthetic which blocks sodium fast channels and has antiarrhythmatic properties by reducing the magnitude of inward sodium current. The accompanying shortening of the action potential is thought to directly reduce calcium entry into the cell via Ca^2+ selective channels and Na^+/Ca^2+ exchange. Recent reports also implicate lignocaine with the scavenging of free radicals such as hydroxyl and singlet oxygen in the heart during reperfusion.
# [3] = system: heart; experiment: Arrest with pinacidil plus local anaesthetics (Example 7); settings: arrest solutions with local anaesthetics
# Experimental: Arrest solutions were made with pinacidil dissolved in 0.05% dimethysulfoxide (DMSO) (200 μM) the local anaesthetics prilocalne, procaine, mepivacaine and lignocaine in Krebs-Henseleit solution.
# [4] = requires a carrier (DMSO); cited from earlier work
compound,measurement,setting,value
Nc1ncnc2c1ncn2[C@@H]1O[C@H](CO)[C@@H](O)[C@H]1O [adenosine],half life in the blood,[1],about 10 seconds
CCN(CC)CC(=O)Nc1c(C)cccc1C [lignocaine],functional recoveries,[2],highly variable functional recoveries
CC(N/C(=N\C#N)Nc1ccncc1)C(C)(C)C (stereo not shown) [pinacidil],effectiveness compared with adenosine,[3],not as effective as adenosine
same,solubility in aqueous solutions,[4],low solubility in aqueous solutions
